This is an account of results in PubChem BioAssay (NCI).

Test systems include TK-10 renal; EKVX NSCLC; LOX IMVI melanoma; SW-620 colon; SN12C renal; OVCAR-3 ovarian; OVCAR-5 ovarian; HOP-62 NSCLC; OVCAR-4 ovarian; HOP-92 NSCLC.
What all share (assay): NCI-60 cell line screen, 48 h

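Test compounds were applied to cells in 96-well plates for 48 hours at 5 doses. The concentration for full growth arrest is given as TGI.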

On to `CC1(C)CC(=O)C2=C(C1)OC1(CC2c2ccc(Cl)cc2)CC(c2ccc(Cl)cc2)C2=C(CC(C)(C)CC2=O)O1` (stereo not given), for which the TGI in the assay on TK-10 renal is over 83.8 µM; with EKVX NSCLC, 34.4 µM; with LOX IMVI melanoma it was 64.2 µM; with SW-620 colon, 61.2 µM; with SN12C renal, over 84.2 µM; in the assay on OVCAR-3 ovarian it was 23.5 µM. The TGI was over 79.1 µM with OVCAR-5 ovarian, 34.2 µM with HOP-62 NSCLC, 30.6 µM in the assay with OVCAR-4 ovarian and 25.7 µM in the assay with HOP-92 NSCLC.

For `CCOC(C)OC1CC(n2cc(C)c(=O)[nH]c2=O)OC1CO` (stereo not given), the TGI in the assay with TK-10 renal, in the assay with EKVX NSCLC, in the assay with LOX IMVI melanoma, in the assay on SW-620 colon, with SN12C renal and in the assay on OVCAR-3 ovarian was over 100 µM in each case. Moreover, the TGI with OVCAR-5 ovarian, in the assay on HOP-62 NSCLC, in the assay with OVCAR-4 ovarian and in the assay on HOP-92 NSCLC was over 100 µM each time.

Turning to `Cc1csc(-n2c(C)nc3cc(Cl)ccc3c2=O)n1`, the TGI with TK-10 renal was over 100 µM; in the assay on EKVX NSCLC, 81.4 µM; with LOX IMVI melanoma, over 100 µM; in the assay with SW-620 colon it was over 100 µM; with SN12C renal it was over 100 µM; in the assay on OVCAR-3 ovarian it was over 100 µM. Also, the TGI in the assay on OVCAR-5 ovarian, with HOP-62 NSCLC, in the assay with OVCAR-4 ovarian and with HOP-92 NSCLC was over 100 µM each time.

As for `CC(C)NC(=O)OCc1c(COC(=O)NC(C)C)c(-c2cc[n+](COC(=O)C3CCCCC3)cc2)n2c1CCC2`, the TGI in the assay with TK-10 renal, with EKVX NSCLC, with LOX IMVI melanoma, in the assay on SW-620 colon, in the assay on SN12C renal and in the assay with OVCAR-3 ovarian was over 100 µM each time. Moreover, the TGI with OVCAR-5 ovarian, in the assay with HOP-62 NSCLC, in the assay with OVCAR-4 ovarian and in the assay with HOP-92 NSCLC was over 100 µM throughout.

Consider `CCCCC[C@H]1CCCCCCCCCC(=O)OC2C(O[C@@H]3OC(C)[C@H](OC(=O)[C@@H](C)CC)C(O[C@@H]4OC(C)[C@H](O)C(O)[C@@H]4O)[C@@H]3OC(=O)[C@H](C)CC)[C@H](OC3C(O)[C@@H](O)C(C)O[C@H]3O1)OC(CO)[C@H]2O` (stereo not given in full), for which the TGI in the assay on TK-10 renal worked out at 34.3 µM; in the assay with EKVX NSCLC it was 36.7 µM; in the assay with LOX IMVI melanoma, 31.4 µM; with SW-620 colon, 30.9 µM; with SN12C renal, 31.3 µM; in the assay with OVCAR-3 ovarian, 32 µM. Moreover, the TGI in the assay on OVCAR-5 ovarian is 30.6 µM; with HOP-62 NSCLC, 32.8 µM; with OVCAR-4 ovarian it was 36.3 µM; with HOP-92 NSCLC, 37.1 µM.

Regarding `O=c1[nH]nc(-c2ccccc2)n1-n1cnnc1`, the TGI in the assay on TK-10 renal, in the assay with EKVX NSCLC, in the assay with LOX IMVI melanoma, with SW-620 colon, in the assay with SN12C renal and in the assay on OVCAR-3 ovarian was over 100 µM each time. The TGI in the assay on OVCAR-5 ovarian, in the assay on HOP-62 NSCLC, in the assay with OVCAR-4 ovarian and in the assay on HOP-92 NSCLC was over 100 µM in each case.

For `Cc1ccc(/C=C2\N=C(N3CCCC(CO)C3)NC2=O)cc1` (stereo not given), the TGI with TK-10 renal, in the assay with EKVX NSCLC, with LOX IMVI melanoma, with SW-620 colon, in the assay with SN12C renal and in the assay with OVCAR-3 ovarian was over 100 µM throughout. Besides, the TGI with OVCAR-5 ovarian, in the assay on HOP-62 NSCLC, with OVCAR-4 ovarian and in the assay with HOP-92 NSCLC was over 100 µM throughout.

With `CCOC(=O)C1=C(C)N(Cc2ccccc2)C2(O)C=CC(=O)C3=C(O)c4ccccc4C(=O)C312` (stereo not given), the TGI with TK-10 renal was 32.5 µM; in the assay with EKVX NSCLC, 39.6 µM; in the assay on LOX IMVI melanoma, 36.6 µM; in the assay with SW-620 colon, 28.2 µM; in the assay with SN12C renal, 32.1 µM; in the assay on OVCAR-3 ovarian it was 20.2 µM. Further, the TGI with OVCAR-5 ovarian is 31.7 µM; in the assay with HOP-62 NSCLC, 31.8 µM; with OVCAR-4 ovarian, 38.7 µM; in the assay on HOP-92 NSCLC it was 41.8 µM.

In the case of `C[C@H](CCC(=O)NCC(=O)O)[C@H]1CC[C@H]2[C@@H]3[C@H](O)C[C@@H]4C[C@H](O)CC[C@]4(C)[C@H]3CC[C@]12C`, the TGI with TK-10 renal, in the assay with EKVX NSCLC, in the assay with LOX IMVI melanoma, with SW-620 colon, with SN12C renal and in the assay with OVCAR-3 ovarian was over 100 µM each time. Moreover, the TGI with OVCAR-5 ovarian, in the assay on HOP-62 NSCLC, in the assay on OVCAR-4 ovarian and with HOP-92 NSCLC was over 100 µM in each case.

In the case of `C=C1CC2[C@H](C)C(=O)CCC2(C)C2=C1C1CCC(C(C)CCC(=C)C(C)C(=O)O)C1(C)CC2=O` (stereo not given in full), the TGI was over 100 µM in the assay on TK-10 renal; over 100 µM in the assay on EKVX NSCLC; 33.8 µM in the assay with LOX IMVI melanoma; over 100 µM in the assay on SW-620 colon; over 100 µM with SN12C renal; over 100 µM in the assay with OVCAR-3 ovarian. The TGI in the assay with OVCAR-5 ovarian was over 100 µM; in the assay on HOP-62 NSCLC, over 100 µM; in the assay on OVCAR-4 ovarian it was over 100 µM; in the assay with HOP-92 NSCLC it was 85.2 µM.

For the compound `CN1CCN([C@H]2C[C@H]3[C@@H]4CC=C5C[C@@H](O)CC[C@]5(C)[C@H]4CC[C@]3(C)[C@H]2O)CC1`, the TGI in the assay on TK-10 renal was over 100 µM; with EKVX NSCLC, over 100 µM; with LOX IMVI melanoma it was over 57.3 µM; in the assay with SW-620 colon, 49.7 µM; with SN12C renal it was over 100 µM; with OVCAR-3 ovarian it was over 57.8 µM. Besides, the TGI is over 82.8 µM in the assay on OVCAR-5 ovarian, over 100 µM with HOP-62 NSCLC, over 56.6 µM in the assay with OVCAR-4 ovarian and over 100 µM in the assay with HOP-92 NSCLC.

As for `C=C1C(=O)OC2C3OC(C)(CCC(O)C3COC(C)=O)CC(OC(=O)/C(=C/C)COC(C)=O)C12` (stereo not given), the TGI in the assay on TK-10 renal amounted to 0.562 µM; in the assay on EKVX NSCLC it was 1.61 µM; with LOX IMVI melanoma, 0.342 µM; in the assay with SW-620 colon it was 0.261 µM; with SN12C renal, 1.98 µM; in the assay on OVCAR-3 ovarian, 0.983 µM. The TGI with OVCAR-5 ovarian was found to be 1.12 µM; in the assay with HOP-62 NSCLC it was 10.1 µM; in the assay on OVCAR-4 ovarian, 12.3 µM; in the assay on HOP-92 NSCLC, 0.392 µM.
